The values that follow come from patent US6683184B2, “Piperazine derivatives and process for the preparation thereof” (Samjin Pharmaceutical Co., Ltd., priority 1999, dated 2004).

The structures appear in SMILES notation. Values after ≈ are worked out from the molar mass of the structure shown.

Assay type in all cases: cell-based
The subject of assay [1] is A549 (human non-small lung cell). As to the kind of experiment: In vitro antitumor effect against human tumor cell lines, SRB assay, A549. To be noted: Homo sapiens, A549 cells, 48 hours, read-out: ED50 A 549. The essentials:
(§1)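 Cells grown in RPMI 1640 with 10% FBS at 37° C, 5% CO2, seeded at 5×10^3˜2×10^4 cells/well and grown 24 h, then exposed to compound (DMSO below 0.5%) for 48 h. SRB staining read at OD 520 nm; response = 100×(T−Tz)/(C−Tz) if T≧Tz, else 100×(T−Tz)/Tz.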
On the technique in general: In SRB staining, fixed cells bind dye roughly in proportion to their protein.

The next assay has as its system SKOV-3 (human ovarian). As to the kind of experiment: In vitro antitumor effect against human tumor cell lines, SRB assay, SKOV-3. To be noted: Homo sapiens, SK-OV-3 cells, 48 hours, read-out: ED50 SK-OV-3. Put shortly: as §1
The subject of a further assay is SKMEL-2 (human melanoma). As to the kind of experiment: In vitro antitumor effect against human tumor cell lines, SRB assay, SKMEL-2. The settings on record: Homo sapiens, SK-MEL-2 cells, 48 hours, read-out: ED50 SK-MEL-2. The essentials: as §1
A further assay deals with XF 498 (human CNS). Nature of the assay: In vitro antitumor effect against human tumor cell lines, SRB assay, XF 498. The settings on record: Homo sapiens, XF498, XF-498 cells, 48 hours, read-out: ED50 XF-498. The essentials: as §1
Another assay deals with HCT-15 (human colon). As to the kind of experiment: In vitro antitumor effect against human tumor cell lines, SRB assay, HCT-15. To be noted: Homo sapiens, HCT 15 cells, 48 hours, read-out: ED50 HCT 15. The essentials: as §1
Assay [2] has as its system P388 (mouse lymphoid neoplasma cell). Nature of the assay: In vitro antitumor effects against animal leukemia cells, dye exclusion assay. To be noted: 48 hours, trypan blue dye exclusion, read-out: P388 (IC50, concentration showing 50% cell growth inhibition compared with the control). The protocol: In vitro antitumor effects against animal leukemia cells.
Tumor cell line: P388 (mouse lymphoid neoplasma cell)
B. Method: Dye Exclusion Assay.
1) Concentrations of P388 cells being cultured in RPMI 1640 media containing 10% FBS were regulated to 1×10^6 cells/ml.
2) Sample drugs of respective concentrations diluted in the ratio of log doses were added into each cell culture and cultured at 37° C., for 48 hours, in […] incubator, and then viable cell numbers were measured by dye exclusion test using trypan blue.

Consider `COc1cc(OC)cc(N2CCN(C(=O)N(C)c3nc(C)c(C)nc3OC)CC2)c1` [Example 19, 1-[(5,6-Dimethyl-2-methoxypyrazin-3-yl)N-methylaminocarbonyl]-4-(3,5-dimethoxyphenyl)piperazine], for which the IC50 in assay [1] was determined as 0.0064 µg/mL (≈ 0.0154 µM); with SKOV-3 (human ovarian), 0.143 µg/mL (≈ 0.344 µM); with SKMEL-2 (human melanoma), 0.043 µg/mL (≈ 0.103 µM); in the assay with XF 498 (human CNS) it was 0.093 µg/mL (≈ 0.224 µM); with HCT-15 (human colon) it was 0.08 µg/mL (≈ 0.193 µM); in assay [2] it was 0.2 µg/mL (≈ 0.481 µM).

On to `COc1nc2ccccc2nc1NC(=O)N1CCN(c2cc([N+](=O)[O-])cc([N+](=O)[O-])c2)CC1` [Example 48, 1-[(2-Methoxyquinoxalin-3-yl)aminocarbonyl]-4-(3,5-dinitrophenyl)piperazine], for which the IC50 was found to be 0.001 µg/mL (≈ 0.00221 µM) in assay [1]; 0.007 µg/mL (≈ 0.0154 µM) in the assay with SKOV-3 (human ovarian); 0.0003 µg/mL (≈ 0.000662 µM) in the assay on SKMEL-2 (human melanoma); 0.004 µg/mL (≈ 0.00882 µM) in the assay with XF 498 (human CNS); 0.002 µg/mL (≈ 0.00441 µM) with HCT-15 (human colon); 0.39 µg/mL (≈ 0.86 µM) in assay [2].

In the case of `CCOc1nc2ccccc2nc1NC(=O)N1CCN(c2cc(C)cc(C)c2)CC1` [Example 74, 1-[(2-Ethoxyquinoxalin-3-yl)aminocarbonyl]-4-(3,5-dimethylphenyl)piperazine], the IC50 in assay [1] is 0.002 µg/mL (≈ 0.00493 µM); in the assay on SKOV-3 (human ovarian), 0.038 µg/mL (≈ 0.0937 µM); with SKMEL-2 (human melanoma), 0.003 µg/mL (≈ 0.0074 µM); in the assay on XF 498 (human CNS) it was 0.024 µg/mL (≈ 0.0592 µM); with HCT-15 (human colon), 0.028 µg/mL (≈ 0.0691 µM); in assay [2], 0.68 µg/mL (≈ 1.68 µM).

As for `COc1nc(C)c(C)nc1NC(=O)N1CCN(c2cc([N+](=O)[O-])cc([N+](=O)[O-])c2)CC1` [Example 15, 1-[(5,6-Dimethyl-2-methoxypyrazin-3-yl)aminocarbonyl]-4-(3,5-dinitrophenyl)piperazine], the IC50 in assay [1] is 0.079 µg/mL (≈ 0.183 µM); in the assay on SKOV-3 (human ovarian), 0.184 µg/mL (≈ 0.427 µM); in the assay with SKMEL-2 (human melanoma), 0.038 µg/mL (≈ 0.0881 µM); in the assay on XF 498 (human CNS), 0.096 µg/mL (≈ 0.223 µM); in the assay on HCT-15 (human colon) it was 0.071 µg/mL (≈ 0.165 µM); in assay [2] it was 0.7 µg/mL (≈ 1.62 µM).

On to `COc1cc(OC)cc(N2CCN(C(=S)Nc3nc(C)c(C)nc3OC)CC2)c1` [Example 28, 1-[(5,6-Dimethyl-2-methoxypyrazin-3-yl)aminothiocarbonyl]-4-(3,5-dimethoxyphenyl)piperazine], for which the IC50 in assay [1] was 0.0001 µg/mL (≈ 0.00024 µM); in the assay with SKOV-3 (human ovarian) it was 0.0006 µg/mL (≈ 0.00144 µM); with SKMEL-2 (human melanoma), under 0.0001 µg/mL; in the assay with XF 498 (human CNS) it was 0.0001 µg/mL (≈ 0.00024 µM); in the assay on HCT-15 (human colon) it was 0.0001 µg/mL (≈ 0.00024 µM); in assay [2], 0.04 µg/mL (≈ 0.0958 µM).

As to `CCOc1nc2ccccc2nc1NC(=O)N1CCN(c2cc(OC)cc(OC)c2)CC1` [Example 72, 1-[(2-Ethoxyquinoxalin-3-yl)aminocarbonyl]-4-(3,5-dimethoxyphenyl)piperazine], the IC50 in assay [1] was 0.0001 µg/mL (≈ 0.000229 µM); in the assay with SKOV-3 (human ovarian) it was 0.0007 µg/mL (≈ 0.0016 µM); with SKMEL-2 (human melanoma), under 0.0001 µg/mL; in the assay with XF 498 (human CNS) it was 0.0001 µg/mL (≈ 0.000229 µM); in the assay with HCT-15 (human colon) it was 0.0001 µg/mL (≈ 0.000229 µM); in assay [2] it was 0.1 µg/mL (≈ 0.229 µM).

With `COc1nc(C)c(C)nc1NC(=O)N1CCN(c2cc(F)cc(F)c2)CC1` [Example 12, 1-[(5,6-Dimethyl-2-methoxypyrazin-3-yl)aminocarbonyl]-4-(3,5-difluorophenyl)piperazine], the IC50 turned out to be 0.008 µg/mL (≈ 0.0212 µM) in assay [1]; 0.069 µg/mL (≈ 0.183 µM) in the assay on SKOV-3 (human ovarian); 0.008 µg/mL (≈ 0.0212 µM) with SKMEL-2 (human melanoma); 0.017 µg/mL (≈ 0.045 µM) in the assay with XF 498 (human CNS); 0.001 µg/mL (≈ 0.00265 µM) in the assay with HCT-15 (human colon); 0.1 µg/mL (≈ 0.265 µM) in assay [2].

As for `COc1nc(C)c(C)nc1N(C)C(=O)N1CCN(c2cc(Cl)cc(Cl)c2)CC1` [Example 21, 1-[(5,6-Dimethyl-2-methoxypyrazin-3-yl)N-methylaminocarbonyl]-4-(3,5-dichlorophenyl)piperazine], the IC50 in assay [1] worked out at 0.038 µg/mL (≈ 0.0896 µM); with SKOV-3 (human ovarian), 0.093 µg/mL (≈ 0.219 µM); with SKMEL-2 (human melanoma), 0.024 µg/mL (≈ 0.0566 µM); in the assay on XF 498 (human CNS), 0.097 µg/mL (≈ 0.229 µM); in the assay on HCT-15 (human colon) it was 0.008 µg/mL (≈ 0.0189 µM); in assay [2], 0.8 µg/mL (≈ 1.89 µM).

Turning to `COc1nc(C)c(C)nc1N(C)C(=O)N1CCN(c2cc(C)cc(C)c2)CC1` [Example 20, 1-[(5,6-Dimethyl-2-methoxypyrazin-3-yl)N-methylaminocarbonyl]-4-(3,5-dimethylphenyl)piperazine], the IC50 in assay [1] is 0.323 µg/mL (≈ 0.842 µM); in the assay with SKOV-3 (human ovarian), 0.904 µg/mL (≈ 2.36 µM); in the assay with SKMEL-2 (human melanoma) it was 0.211 µg/mL (≈ 0.55 µM); with XF 498 (human CNS), 0.97 µg/mL (≈ 2.53 µM); in the assay on HCT-15 (human colon) it was 0.295 µg/mL (≈ 0.769 µM); in assay [2], 1.2 µg/mL (≈ 3.13 µM).
